Test results from ChEMBL document CHEMBL3868599, “Strategy for designing selective α-l-rhamnosidase inhibitors: Synthesis and biological evaluation of l-DMDP cyclic isothioureas” (Bioorg Med Chem, 2017).
Values belong to the compound of their own block, whether it stands above or below them.

What was measured:
[1] = Inhibition of Penicillium decumbens alpha-L-rhamnosidase using p-nitrophenyl-glycoside as substrate by spectrophotometric method
[2] = tested on: Penicillium decumbens; assay: Inhibition of Penicillium decumbens alpha-L-rhamnosidase at 1000 uM using p-nitrophenyl-glycoside as substrate by spectrophotometric method
[3] = tested on: Prunus dulcis; assay: Inhibition of almond beta-glucosidase at 1000 uM using p-nitrophenyl-glycoside as substrate by spectrophotometric method
[4] = Inhibition of human lysosomal beta-glucosidase using 4-methylumbelliferyl-beta-D-glucopyranoside as substrate preincubated for 45 mins followed by substrate addition measured after 30 mins by fluorescence spectrophotometric method
[5] = species: Rattus norvegicus; assay: Inhibition of rat intestinal maltase assessed as D-glucose level at 1000 uM using maltose as substrate measured after 10 to 30 mins
[6] = molecular target: T1, Tissue alpha-L-fucosidase (Bos taurus) (UniProt Q2KIM0); assay: Inhibition of bovine kidney alpha-L-fucosidase at 1000 uM using p-nitrophenyl-glycoside as substrate by spectrophotometric method
T1 sequence (whole entry): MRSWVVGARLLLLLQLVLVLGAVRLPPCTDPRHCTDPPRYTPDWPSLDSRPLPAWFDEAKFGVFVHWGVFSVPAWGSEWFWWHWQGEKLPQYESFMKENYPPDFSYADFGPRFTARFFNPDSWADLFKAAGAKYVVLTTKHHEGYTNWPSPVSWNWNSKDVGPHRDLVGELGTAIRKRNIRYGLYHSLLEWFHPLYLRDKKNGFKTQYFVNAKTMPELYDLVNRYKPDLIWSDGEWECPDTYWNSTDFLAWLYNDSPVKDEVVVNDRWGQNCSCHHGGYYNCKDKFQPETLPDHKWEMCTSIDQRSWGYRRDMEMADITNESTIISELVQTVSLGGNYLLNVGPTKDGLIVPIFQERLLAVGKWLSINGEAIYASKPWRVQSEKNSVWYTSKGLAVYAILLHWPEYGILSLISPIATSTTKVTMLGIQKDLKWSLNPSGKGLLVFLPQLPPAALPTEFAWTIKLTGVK

[7] = tested on: Oryza sativa; assay: Inhibition of rice alpha-glucosidase at 1000 uM using p-nitrophenyl-glycoside as substrate by spectrophotometric method
[8] = Inhibition of bovine liver beta-glucosidase using p-nitrophenyl-glycoside as substrate by spectrophotometric method; parameters: species or system Bos taurus
[9] = molecular target: T2, Beta-galactosidase (Bos taurus, UniProt Q58D55); assay: Inhibition of bovine liver beta-galactosidase using p-nitrophenyl-glycoside as substrate by spectrophotometric method
T2 sequence (Q58D55 whole entry): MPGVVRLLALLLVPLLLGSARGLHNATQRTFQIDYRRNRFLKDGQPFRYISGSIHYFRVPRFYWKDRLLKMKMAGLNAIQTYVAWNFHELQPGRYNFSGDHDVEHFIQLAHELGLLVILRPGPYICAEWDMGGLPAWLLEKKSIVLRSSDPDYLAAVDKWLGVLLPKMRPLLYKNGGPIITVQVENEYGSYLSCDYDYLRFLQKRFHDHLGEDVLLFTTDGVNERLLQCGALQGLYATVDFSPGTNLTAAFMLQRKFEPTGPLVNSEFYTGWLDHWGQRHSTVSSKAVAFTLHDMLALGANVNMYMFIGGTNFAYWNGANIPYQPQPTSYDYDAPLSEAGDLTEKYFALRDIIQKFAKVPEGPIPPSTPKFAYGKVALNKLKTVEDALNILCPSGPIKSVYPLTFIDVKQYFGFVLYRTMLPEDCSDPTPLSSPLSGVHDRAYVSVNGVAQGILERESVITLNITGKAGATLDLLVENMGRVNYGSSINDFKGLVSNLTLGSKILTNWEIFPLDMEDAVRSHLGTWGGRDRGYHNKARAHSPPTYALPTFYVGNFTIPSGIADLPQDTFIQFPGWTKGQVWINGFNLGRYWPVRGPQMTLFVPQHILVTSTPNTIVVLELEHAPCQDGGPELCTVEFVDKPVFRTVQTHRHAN

[10] = tested on: Aspergillus niger; assay: Inhibition of Aspergillus niger amyloglucosidase assessed as D-glucose level at 1000 uM using maltose as substrate measured after 10 to 30 mins
[11] = tested on: Escherichia coli; assay: Inhibition of Escherichia coli beta-glucuronidase at 1000 uM using p-nitrophenyl-glycoside as substrate by spectrophotometric method
[12] = molecular target: T3, Uncharacterized protein (Sus scrofa) (UniProt I3LIR5); assay: Inhibition of porcine kidney trehalase assessed as D-glucose level at 1000 uM using maltose as substrate measured after 10 to 30 mins
T3 sequence (whole entry): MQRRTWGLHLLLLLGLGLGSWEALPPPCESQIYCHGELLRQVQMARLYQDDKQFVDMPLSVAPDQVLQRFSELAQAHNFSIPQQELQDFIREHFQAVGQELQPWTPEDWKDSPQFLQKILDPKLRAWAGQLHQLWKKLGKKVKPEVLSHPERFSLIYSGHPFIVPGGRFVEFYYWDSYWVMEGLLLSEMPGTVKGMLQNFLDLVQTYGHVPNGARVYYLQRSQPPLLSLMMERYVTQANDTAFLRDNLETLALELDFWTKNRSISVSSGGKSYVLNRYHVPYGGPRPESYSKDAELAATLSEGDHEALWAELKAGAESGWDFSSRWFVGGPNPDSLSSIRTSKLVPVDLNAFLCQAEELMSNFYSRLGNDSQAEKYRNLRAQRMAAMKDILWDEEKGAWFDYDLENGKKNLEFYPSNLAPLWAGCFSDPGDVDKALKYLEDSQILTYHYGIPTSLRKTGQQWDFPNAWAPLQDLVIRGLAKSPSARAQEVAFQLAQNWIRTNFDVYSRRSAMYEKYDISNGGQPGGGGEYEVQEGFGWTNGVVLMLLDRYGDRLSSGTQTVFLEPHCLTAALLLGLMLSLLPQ

[13] = Inhibition of Penicillium decumbens alpha-L-rhamnosidase
[14] = species: Homo sapiens; assay: Inhibition of human lysosomal beta-glucosidase at 1000 uM using 4-methylumbelliferyl-beta-D-glucopyranoside as substrate preincubated for 45 mins followed by substrate addition measured after 30 mins by fluorescence spectrophotometric method
[15] = species: Bos taurus; assay: Inhibition of bovine liver beta-glucosidase at 1000 uM using p-nitrophenyl-glycoside as substrate by spectrophotometric method
[16] = tested on: Escherichia coli; assay: Inhibition of Escherichia coli beta-glucuronidase at 100 uM using p-nitrophenyl-glycoside as substrate by spectrophotometric method
[17] = species: Rattus norvegicus; assay: Inhibition of rat intestinal maltase assessed as D-glucose level at 100 uM using maltose as substrate measured after 10 to 30 mins
[18] = species: Homo sapiens; assay: Inhibition of human lysosomal beta-glucosidase at 100 uM using 4-methylumbelliferyl-beta-D-glucopyranoside as substrate preincubated for 45 mins followed by substrate addition measured after 30 mins by fluorescence spectrophotometric method
[19] = tested on: Prunus dulcis; assay: Inhibition of almond beta-glucosidase at 100 uM using p-nitrophenyl-glycoside as substrate by spectrophotometric method
[20] = tested on: Aspergillus niger; assay: Inhibition of Aspergillus niger amyloglucosidase assessed as D-glucose level at 100 uM using maltose as substrate measured after 10 to 30 mins
[21] = molecular target: T1, Tissue alpha-L-fucosidase (Bos taurus); assay: Inhibition of bovine kidney alpha-L-fucosidase at 100 uM using p-nitrophenyl-glycoside as substrate by spectrophotometric method
[22] = molecular target: T3, Uncharacterized protein (Sus scrofa); assay: Inhibition of porcine kidney trehalase assessed as D-glucose level at 100 uM using maltose as substrate measured after 10 to 30 mins
[23] = species: Bos taurus; assay: Inhibition of bovine liver beta-glucosidase at 100 uM using p-nitrophenyl-glycoside as substrate by spectrophotometric method
[24] = tested on: Oryza sativa; assay: Inhibition of rice alpha-glucosidase at 100 uM using p-nitrophenyl-glycoside as substrate by spectrophotometric method

SMILES: CCCCCCCCNC(=S)N1[C@H](CO)[C@@H](O)[C@H](O)[C@H]1CO
inhibition [2]: < 50%
inhibition [3]: < 50%
IC50 [4]: 12 µM
inhibition [5]: < 50%
inhibition [6]: < 50%
inhibition [7]: < 50%
IC50 [8]: 689 µM
IC50 [9]: 414 µM
inhibition [10]: < 50%
inhibition [11]: < 50%
inhibition [12]: < 50%

SMILES: OC[C@@H]1[C@H](O)[C@@H](O)[C@@H]2CCCCN12
IC50 [13]: 3.3 µM

SMILES: OC[C@H]1[C@@H](O)[C@@H](O)CN1Cc1ccccc1
IC50 [13]: 21 µM

SMILES: CCCCCCNC(=S)N1[C@H](CO)[C@@H](O)[C@H](O)[C@H]1CO
inhibition [2]: < 50%
inhibition [3]: < 50%
inhibition [14]: < 50%
inhibition [15]: < 50%
inhibition [5]: < 50%
inhibition [6]: < 50%
inhibition [7]: < 50%
IC50 [9]: 1000 µM
inhibition [10]: < 50%
inhibition [11]: < 50%
inhibition [12]: < 50%

SMILES: CCCCCCNC(=S)N1[C@@H](CO)[C@H](O)[C@@H](O)[C@@H]1CO
inhibition [2]: < 50%
inhibition [3]: < 50%
inhibition [14]: < 50%
inhibition [15]: < 50%
inhibition [5]: < 50%
inhibition [6]: < 50%
inhibition [7]: < 50%
IC50 [9]: 572 µM
inhibition [10]: < 50%
inhibition [11]: < 50%
inhibition [12]: < 50%

SMILES: CCCCCCCCCC/N=C1/SC[C@H]2[C@H](O)[C@@H](O)[C@H](CO)N12
inhibition [16]: < 50%
inhibition [17]: < 50%
IC50 [1]: 0.77 µM
inhibition [18]: < 50%
inhibition [19]: < 50%
inhibition [20]: < 50%
inhibition [21]: < 50%
IC50 [9]: 36 µM
inhibition [22]: < 50%
inhibition [23]: < 50%
inhibition [24]: < 50%

SMILES: OC[C@H]1[C@H](O)[C@@H](O)[C@@H]2CS/C(=N/Cc3cc(Cl)c(Cl)c(Cl)c3)N12
IC50 [1]: 0.45 µM

SMILES: OC[C@H](O)[C@@H]1NC[C@H](O)[C@@H]1O
IC50 [13]: 52.8 µM

More lines, now with the values ahead:

IC50 [1]: 0.8 µM
SMILES: OC[C@H]1[C@H](O)[C@@H](O)[C@@H]2CS/C(=N/Cc3ccc(Cl)cc3Cl)N12

inhibition [2]: 9.3%
SMILES: OC[C@H]1[C@@H](O)[C@H](O)[C@@H]2CS/C(=N/Cc3ccc(Cl)c(Cl)c3)N12

IC50 [1]: 0.7 µM
SMILES: OC[C@H]1[C@H](O)[C@@H](O)[C@@H]2CS/C(=N/Cc3cc(Cl)cc(Cl)c3)N12

IC50 [1]: 0.7 µM
SMILES: OC[C@H]1[C@H](O)[C@@H](O)[C@@H]2CS/C(=N/Cc3cccc(Cl)c3)N12

IC50 [1]: 1.8 µM
SMILES: OC[C@H]1[C@H](O)[C@@H](O)[C@@H]2CS/C(=N/Cc3ccc(F)cc3)N12
